Measured values from patent US7632528B1, “Antimigraine combination comprising Sapindus and Emblica extracts” (Lupin Limited, priority 2000, dated 2009).
Structures can show the parent of a compound that is named as a salt.

Key:
[1] = test system: migraine attacks; details: cited from earlier work
[2] = test system: patients having migraine; experiment: Multi-centric double blind clinical studies (placebo, flunarizine, internal crossover); type: in vivo, human
Source text: The objective of this study was to evaluate the efficacy and tolerability of the formulation as a prophylactic monotherapy in comparison with a placebo in patients having migraine. Patients were included in the study based on the following criteria: those aged between 15–60 years, diagnosed as having migraine as per International Headache Society Classification (IHSC) guidelines; those with at least two or more attacks of acute migraine per month for at least 6 months; women of child bearing age who take contraceptive measures during the study and those taking no other prophylactic therapy during the study period or alteast one month prior to the study. A detailed ENT examination was conducted prior to the study to rule out any nasal pathology. A written consent was taken from each patient.
Patients with more than 8 attacks a month, unstable angina, hypertension, cardiac failure, severe left ventricular failure, atrophic rhinitis, nasal polyposis, patients taking any prophylactic medication within 1 month of the study, patients with psychiatric disorders, pregnant/nursing women, patients with glaucoma and Parkinson's disease were excluded from the study.
This study, a multi-centric, randomised placebo controlled double blind (test formulation versus matched saline placebo) was conducted at five centres. A non-randomised single blind (test formulation versus flunarizine) study was conducted at two of the five centres. An internal crossover study was done at three of the five centres by cross over of patients in the test formulation and placebo groups.
The duration of study was eight months. The period of treatment was three months. Patients later on were crossed over internally (test formulation and placebo) for further treatment of three months and a follow-up period of two months. One drop of the test formulation was administered into each nostril two times a day, once in the morning and once in the evening. One drop of placebo was administrated into each nostril, once in the morning and once in the evening. flurnarizine tablet (10 mg) was administered once a day orally.
The enrolled patients underwent a general examination, E.N.T. examination and laboratory tests. Each patient was given a diary to record the details of the migraine, episodes, any adverse events(pre- and post-treatment) as well as details of rescue modification taken, if any. The same was also recorded by the investigator.
Patients were instructed on how to record the details of various visual symptoms, nausea, vomiting and headache (viz. time of onset, relief, and any additional treatment) and grade them according to severity (4 point scale) in diary. The recorded observations in the diary were reviewed every month of the study period.
The efficacy of the prophylactic treatment was evaluated on the following basis: • At least 50% reduction in the intensity or duration of migraine attacks (mean duration of migraine in hours) per month at the end of 12 weeks of treatment, compared to baseline. • Reduction in the frequency of attack per month using test formulation and flunarizine compared to placebo (>or =50%). • Consumption of drugs for symptomatic relief of breakthrough attacks in the three groups. • At least 50% or more reduction of attack in patients who respond to test formulation compared to the reduction of attack in patients given placebo. • The safety and patient compliance of test formulation was assessed on the basis of incidence and severity of side effects in each groups compared to placebo and number of drop outs in each group compared to placebo. Results
The results of the trial was statistically analysed based on the following parameters:
• 1. Atleast 50% reduction in the frequency of migraine attacks • 2. Atleast 50% reduction in the duration of migraine attacks • 3. Reduction in the severity of migraine attacks [graded as none (0), mild (1), moderate (2) and severe (3) • 4. […]

[3] = Colouration of the formulation on storage; type: physicochemical; details: 3 months
Source text: To prevent any colouration during storage of the formulation it is preferable to add an anti-oxidant to prevent the colouration. Sodium metabisulfite is preferably used. When this anti-oxidant is not added the colour of the solution changes from initial colourless to straw yellow to dark yellow in one month's time and to dark brown in three months. Addition of sodium bisulfite arrests the change in colouration. This can be used in a concentration ranging from 0.020% to 0.080% wt/vol of the composition. A range of 0.04 to 0.05% being the most preferred
Tabulation of the colour change as a function of the concentration of the sodium meta bisulfite concentration is given below in Table-III.
The importance of purging the entire system with nitrogen reflects in the colouration to the product. When no nitrogen is bubbled in to the system the colour of the formulation changes to yellow within 3 months, indicating degradation. In batches where the system is constantly kept under nitrogen atmosphere, no change in colouration is observed even after 3 months.

[4] = test system: nasal mucosa; experiment: Nasal mucosal irritation as a function of additives in the formulation; type: in vivo; details: used as the preservative of the aqueous formulation
[5] = end of third follow-up, comparison with flunarizine

CN1C[C@H](C(=O)N[C@]2(C)O[C@@]3(O)[C@@H]4CCCN4C(=O)[C@H](Cc4ccccc4)N3C2=O)C=C2c3cccc4[nH]cc(c34)C[C@H]21 [Ergotamine, Ergotamine tartrate]
incidence of side effects ([1]; over that observed on use of NSAIDs): 17–41%

Fc1ccc(C(c2ccc(F)cc2)N2CCN(C/C=C/c3ccccc3)CC2)cc1 [Flunarizine, flunarizine]
DROP OUT RATE (%) ([2]; 3 months treatment): 43%
Reduction in mean frequency of attacks ([2]; at each follow-up): significant difference reduction in the mean frequency of attacks at the end each follow up
Reduction in the duration of attacks ([2]; at the follow-ups): significant reduction in the duration of attacks only at the end of the second and third follow-up
Patients with ≧50% REDUCTION IN DURATION ([2]; end of third follow up, comparison with flunarizine): 52.0%
Patients with ≧50% REDUCTION IN DISABILITY [2, 5]: 69.6%
Patients with ≧50% REDUCTION IN SEVERITY [2, 5]: 42.3%
Patients with ≧50% REDUCTION IN FREQUENCY ([2]; third follow up, comparison with flunarizine): 81.5%

O=S([O-])S(=O)(=O)[O-].[Na+].[Na+] [Sodium meta bisulfite]
Change in colour ([3]; sodium meta bisulfite 0.020 % w/v): Colourless→light brown (3 months)
Change in colour ([3]; sodium meta bisulfite 0.040 % w/v): Colourless→light Yellow (3 months)
Change in colour ([3]; sodium meta bisulfite 0.050 % w/v): Colourless→very light Yellow (3 months)
Change in colour ([3]; sodium meta bisulfite 0.075 % w/v): Remains Colourless (3 months)
Change in colour ([3]; sodium meta bisulfite 0.080 % w/v): Remains Colourless (3 months)

CNS(=O)(=O)Cc1ccc2[nH]cc(CCN(C)C)c2c1 [Sumatriptan, sumatriptan]
relief to migraine attacks ([1]; in one hour, placebo less than 27%): 70%

benzalkonium chloride
Mucosal irritation [4]: causes mucosal irritation
